Assay results reported in patent publication US8293734B2, “Nitroimidazooxazine and nitroimidazooxazole analogues and their uses” (priority 2009, dated 2012).
≈ marks a conversion by molar mass, not a printed value. Where two headings read alike, the source gives them in different places.

Key:
[1] = system: Trypanosoma cruzi amastigotes (Tulahuen C2C4 strain); assay: Trypanosoma cruzi assay in infected L-6 cells; type: cell-based; details: L6, 96 h incubation, read-out: IC50 T. cruzi
Protocol: (§1) (c) Antiprotozoal screening. Compounds were evaluated for their activities against both Trypanosoma cruzi amastigotes and Leishmania donovani amastigotes (free or encapsulated in macrophages), according to the following protocols:
(i) Trypanosoma cruzi assay. L-6 cells (2×10^3) in medium (100 μL of RPMI 1640 supplemented with 2 mM L-glutamine plus 10% heat inactivated fetal calf serum) were seeded in 96-well microtitre plates (Costar™) and incubated at 37° C. (5% CO2) for 1d. A suspension (50 μL) of Trypanosoma cruzi trypomastigotes (5×10^3 of Tulahuen C2C4 strain, containing the β-galactosidase gene) was added, and the cells were incubated at 37° C. (5% CO2) for a further 48 h to establish the infection. The medium was removed and replaced by fresh medium and the infected cells were then incubated at 37° C. (5% CO2) for 96 h in either medium alone or in the presence of serial (3-fold) dilutions of test compounds (initially prepared as 10 mg/mL stock solutions in DMSO and diluted into medium). Benznidazole was employed as a standard in each assay. Following incubation, chlorophenol red glycoside (100 mM) in 0.1% Nonidet P40/PBS (50 μL) was added, and (after 6 h) the absorbance at 540 nm was measured and used to calculate the IC50 values.

[2] = system: replicating Mycobacterium tuberculosis; assay: MABA microplate Alamar blue assay, MIC (aerobic); type: cell-based; details: 192 h
[3] = system: VERO cells (CCL-81); assay: Mammalian cell cytotoxicity assay (tetrazolium dye); type: cell-based; details: Chlorocebus sabaeus, read-out: IC50 VERO
Protocol: (b) Mammalian cell cytotoxicity assay. This was assessed against VERO cells (CCL-81, American Type Culture Collection) in a 72 h exposure, using a tetrazolium dye assay (Falzari et al., 2005).

[4] = system: L. donovani amastigotes (MHOM-ET-67/L82) in mouse macrophages; assay: Leishmania donovani infected macrophage assay; type: cell-based; details: 96 h incubation, read-out: IC50 L. donovani macro
Protocol: as §1
(iii) Leishmania donovani infected macrophage assay. Freshly harvested mouse macrophages in medium (RPMI 1640 plus 10% heat inactivated fetal calf serum) were incubated at 37° C. (5% CO2) for 24 h and then infected (1:3 macrophages to amastigotes) with an axenic L. donovani amastigote culture (MHOM-ET-67/L82) in medium (SM, pH 5.4 plus 10% heat inactivated fetal calf serum). The infected macrophages were seeded at a density of 1.2×10^6/mL (by diluting in RPMI+10% FCS) in 16-well slides (Lab-tek™) and incubated at 37° C. (5% CO2) for 24 h. The medium was removed and replaced by fresh medium (RPMI 1640+10% FCS), and this was repeated following mixing. The infected macrophages were then incubated at 37° C. (5% CO2) for 96 h in either medium alone or in the presence of serial (3-fold) dilutions of test compounds (initially prepared as 10 mg/mL stock solutions in DMSO and diluted into medium). Miltefosin was employed as a standard in each assay. […], the slides were fixed (5 min in 100% MeOH) and stained (10% Giemsa, 10 min). The ratio of infected to uninfected macrophages was determined by microscopic examination, and the IC50 values were then calculated by linear regression analysis.

[5] = system: M. tuberculosis bacteria in the non-replicating state; assay: LORA low-oxygen-recovery assay, MIC (anaerobic); type: cell-based; details: Mycobacterium tuberculosis, 264 h; 11 day luminescence-based low-oxygen-recovery assay
[6] = system: Axenically grown L. donovani amastigotes (MHOM-ET-67/L82); assay: Axenic Leishmania donovani assay; type: cell-based; details: 70 h incubation, read-out: IC50 L. donovani axen
Protocol: as §1
(ii) Axenic Leishmania donovani assay. Axenically grown L. donovani amastigotes (MHOM-ET-67/L82) from a healthy culture in log phase were seeded at a density of 1×10^6/mL medium (SM, pH 5.4 plus 10% heat inactivated fetal calf serum) in 96-well microtitre plates (Costar™) and incubated at 37° C. (5% CO2) for 70 h in either medium alone or in the presence of serial (3-fold) dilutions of test compounds (initially prepared as 10 mg/mL stock solutions in DMSO and diluted into medium). Miltefosin was employed as a standard in each assay. After incubation, Resazurin fluorescent dye was added to each well, and incubation was continued for an additional 2 h. The IC50 values were determined from measurements of the fluorescence data.

[7] = system: M. tuberculosis Erdman; assay: In vivo mouse acute TB infection assay; set-up: species or system BALB/c mice; details: 100 mg/kg orally daily 5 days a week for 3 weeks; ratio of average lung CFU reduction to that of PA-824

SMILES	IC50 [1]	melting point	MIC [2]	IC50 ([3]; 72 h exposure)	IC50 [4]	MIC [5]	IC50 [6]	IC50 ([3]; 72 h)	In vivo efficacy vs PA-824 [7]
CC1(COc2ccc(-c3ccc(C#N)cc3)cc2)Cn2cc([N+](=O)[O-])nc2O1 (stereo not drawn) [Compound 9, 4′-[(2-methyl-6-nitro-2,3-dihydroimidazo[2,1-b][1,3]oxazol-2-yl)methoxy][1,1′-biphenyl]-4-carbonitrile]	1.2 µg/mL (≈ 3.19 µM)	180 to 181 °C	0.04 µM (≈ 0.0151 µg/mL)	> 128 µM	0.2 µg/mL (≈ 0.531 µM)	3.7 µM (≈ 1.39 µg/mL)	0.016 µg/mL (≈ 0.0425 µM)	–	–
COc1ccc(-c2ccc(OCC3(C)Cn4cc([N+](=O)[O-])nc4O3)cc2)cn1 (stereo not drawn) [Compound 8, 2-{[4-(6-methoxy-3-pyridinyl)phenoxy]methyl}-2-methyl-6-nitro-2,3-dihydroimidazo[2,1-b][1,3]oxazole]	4.1 µg/mL (≈ 10.7 µM)	217 to 219 °C	0.04 µM (≈ 0.0153 µg/mL)	> 128 µM	0.38 µg/mL (≈ 0.994 µM)	14 µM (≈ 5.35 µg/mL)	0.017 µg/mL (≈ 0.0445 µM)	–	–
CC1(COc2ccc(-c3ccc(F)cc3)cc2)Cn2cc([N+](=O)[O-])nc2O1 (stereo not drawn) [Compound 10, 2-{[(4′-fluoro[1,1′-biphenyl]-4-yl)oxy]methyl}-2-methyl-6-nitro-2,3-dihydroimidazo[2,1-b][1,3]oxazole]	2 µg/mL (≈ 5.41 µM)	180 to 181 °C	0.045 µM (≈ 0.0166 µg/mL)	> 128 µM	0.23 µg/mL (≈ 0.623 µM)	–	0.04 µg/mL (≈ 0.108 µM)	–	–
CC1(COc2ccc(-c3ccc(C(F)(F)F)cc3)cc2)Cn2cc([N+](=O)[O-])nc2O1 (stereo not drawn) [Compound 11, 2-methyl-6-nitro-2-({[4′-(trifluoromethyl)[1,1′-biphenyl]-4-yl]oxy}methyl)-2,3-dihydroimidazo[2,1-b][1,3]oxazole]	18 µg/mL (≈ 42.9 µM)	219 to 220 °C	0.08 µM (≈ 0.0335 µg/mL)	–	0.47 µg/mL (≈ 1.12 µM)	–	0.028 µg/mL (≈ 0.0668 µM)	> 128 µM	–
O=[N+]([O-])c1cn2c(n1)OCC(COCc1ccc(OCc3ccccc3)cc1)C2 (stereo not drawn) [Compound 73, 6-({[4-(benzyloxy)benzyl]oxy}methyl)-2-nitro-6,7-dihydro-5H-imidazo[2,1-b][1,3]oxazine]	2.8 µg/mL (≈ 7.08 µM)	150 to 151 °C	–	113 µM	0.53 µg/mL (≈ 1.34 µM)	–	0.16 µg/mL (≈ 0.405 µM)	–	–
CC1(COCc2ccc(OC(F)(F)F)cc2)Cn2cc([N+](=O)[O-])nc2O1 (stereo not drawn) [Compound 25, 2-methyl-6-nitro-2-({[4-(trifluoromethoxy)benzyl]oxy}methyl)-2,3-dihydroimidazo[2,1-b][1,3]oxazole]	0.24 µg/mL (≈ 0.643 µM)	110 to 111 °C	–	> 128 µM	0.22 µg/mL (≈ 0.589 µM)	–	0.029 µg/mL (≈ 0.0777 µM)	–	0.025
O=[N+]([O-])c1cn2c(n1)OC(COCc1cccc(-c3ccc(OC(F)(F)F)cc3)c1)CC2 (stereo not drawn) [Compound 50, 2-nitro-7-({[4′-(trifluoromethoxy)[1,1′-biphenyl]-3-yl]methoxy}methyl)-6,7-dihydro-5H-imidazo[2,1-b][1,3]oxazine]	6.3 µg/mL (≈ 14 µM)	117 to 119 °C	0.24 µM (≈ 0.108 µg/mL)	> 128 µM	0.15 µg/mL (≈ 0.334 µM)	5.1 µM (≈ 2.29 µg/mL)	0.041 µg/mL (≈ 0.0912 µM)	–	–
CC1(COCc2ccc(OCc3ccccc3)cc2)Cn2cc([N+](=O)[O-])nc2O1 (stereo not drawn) [Compound 26, 2-({[4-(benzyloxy)benzyl]oxy}methyl)-2-methyl-6-nitro-2,3-dihydroimidazo[2,1-b][1,3]oxazole]	0.34 µg/mL (≈ 0.86 µM)	130 to 131 °C	0.3 µM (≈ 0.119 µg/mL)	> 128 µM	0.36 µg/mL (≈ 0.91 µM)	50 µM (≈ 19.8 µg/mL)	0.013 µg/mL (≈ 0.0329 µM)	–	–
